One assay concerns the target T1, hAMY3 receptor (Homo sapiens, UniProt O60896+P30988).
T1 sequence (P30988 25-474): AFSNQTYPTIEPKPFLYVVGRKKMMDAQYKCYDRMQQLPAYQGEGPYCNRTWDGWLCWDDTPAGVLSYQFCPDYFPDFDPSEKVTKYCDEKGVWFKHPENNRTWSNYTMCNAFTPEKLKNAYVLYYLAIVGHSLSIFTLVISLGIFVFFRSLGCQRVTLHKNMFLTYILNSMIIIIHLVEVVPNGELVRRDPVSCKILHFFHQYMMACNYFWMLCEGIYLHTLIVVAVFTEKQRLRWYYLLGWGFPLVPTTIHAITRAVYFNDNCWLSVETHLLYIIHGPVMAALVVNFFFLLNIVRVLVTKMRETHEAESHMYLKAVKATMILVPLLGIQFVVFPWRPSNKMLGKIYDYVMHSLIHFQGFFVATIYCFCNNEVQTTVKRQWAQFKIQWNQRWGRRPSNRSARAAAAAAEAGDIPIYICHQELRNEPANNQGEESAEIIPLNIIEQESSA
T1 sequence (O60896 24-148 partner): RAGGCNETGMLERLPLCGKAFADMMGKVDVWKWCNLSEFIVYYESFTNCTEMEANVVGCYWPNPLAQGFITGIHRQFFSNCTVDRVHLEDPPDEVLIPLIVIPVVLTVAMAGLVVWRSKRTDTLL
In words: cAMP assay for in vitro receptor activation, hAMY3-R. In kind it is cell-based. Conditions: cAMP assay, hAMY3 receptor; read-out: hAMY3R EC50. The gist of the method: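 Read-out is TR-FRET cAMP signal, recorded one hour after reagent addition, following 30 min room-temperature stimulation of stable hAMY3 cells with graded compound doses in casein/IBMX (0.5 mM) buffer.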

For a further assay, the target named is hAM1 receptor (Homo sapiens, UniProt O60895+Q16602). Kind of assay: cAMP assay for in vitro receptor activation, hAM1-R. It is filed as cell-based. As to conditions: cAMP assay, hAM1 receptor; read-out: hAM1R EC50. The gist of the method: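 A subcloned monoclonal line stably expressing hAM1 receptor is thawed and plated at 8000 cells/well. The assay buffer is DPBS with 0.05% casein and 0.5 mM IBMX, and receptor activation is followed by cAMP levels.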
(cAMP levels reflect the balance of adenylyl cyclase and phosphodiesterase activity.)

Numbered stars: 1 amine (or outer) side, 2 acyl side, 3 side chain; on linkers, the order of the positions; unused ones are H or OH. Bridge positions count the residues as written; N and C are the ends. Square brackets hold non-standard residues; d marks the D form. Peptide text beside a SMILES is read from it. * marks the point of attachment. C20 diacid = O=C(O)CCCCCCCCCCCCCCCCCCC(=O)*; γGlu = O=C(O)[C@H](CCC(=O)[*:2])N[*:1]; Hyp = O=C(O)[C@@H]1C[C@@H](O)CN1 A value given as a limit tells only on which side of the number the result lay.

Chain of hAM1 receptor (Q16602 23-461): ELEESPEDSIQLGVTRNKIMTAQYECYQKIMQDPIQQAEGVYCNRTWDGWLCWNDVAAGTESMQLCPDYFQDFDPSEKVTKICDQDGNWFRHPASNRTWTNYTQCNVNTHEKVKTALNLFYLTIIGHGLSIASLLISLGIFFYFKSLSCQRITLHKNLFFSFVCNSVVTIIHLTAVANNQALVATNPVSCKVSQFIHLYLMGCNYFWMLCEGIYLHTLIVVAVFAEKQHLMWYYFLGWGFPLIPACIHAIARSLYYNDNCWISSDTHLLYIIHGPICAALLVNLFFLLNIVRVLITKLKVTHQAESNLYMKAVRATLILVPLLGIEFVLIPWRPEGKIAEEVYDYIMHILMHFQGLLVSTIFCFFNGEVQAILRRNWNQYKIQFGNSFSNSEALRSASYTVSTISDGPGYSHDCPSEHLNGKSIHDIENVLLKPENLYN
Chain of hAM1 receptor (O60895 43-175 partner): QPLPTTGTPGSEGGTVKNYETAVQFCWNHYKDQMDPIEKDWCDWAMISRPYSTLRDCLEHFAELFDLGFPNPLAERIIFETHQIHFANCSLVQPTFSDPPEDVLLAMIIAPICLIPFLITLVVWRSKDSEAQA

The term EC50 denotes the concentration needed to bring the measured effect to its halfway point. As to `CC[C@H](C)[C@H](NC(=O)[C@H](CCCCN)NC(=O)[C@@H](NC(=O)[C@H](CCCNC(=N)N)NC(=O)[C@@H]1CCCN1C(=O)[C@H](C)NC(=O)[C@@H](NC(=O)[C@H](CC(N)=O)NC(=O)[C@H](CC(=O)O)NC(=O)[C@H](CCCCN)NC(=O)[C@H](CC(=O)O)NC(=O)[C@H](CCCCN)NC(=O)[C@H](CC(=O)O)NC(=O)[C@@H](NC(=O)[C@H](Cc1ccccc1)NC(=O)[C@H](CCC(N)=O)NC(=O)[C@H](Cc1ccc(O)cc1)NC(=O)[C@H](CC(C)C)NC(=O)[C@H](Cc1ccccc1)NC(=O)[C@H](Cc1c[nH]cn1)NC(=O)[C@H](C)NC(=O)[C@H](CC(C)C)NC(=O)[C@H](CCCNC(=N)N)NC(=O)[C@H](CCC(N)=O)NC(=O)[C@@H](NC(=O)[C@@H](NC(=O)[C@@H]1CSSC[C@H](NC(=O)CN)C(=O)N[C@@H](CCCNC(=N)N)C(=O)N[C@@H](Cc2ccccc2)C(=O)NCC(=O)N[C@@H]([C@@H](C)O)C(=O)N1)[C@@H](C)O)C(C)C)[C@@H](C)O)C(C)C)[C@@H](C)O)C(=O)NCC(=O)N[C@@H](CO)C(=O)N[C@@H](CC(N)=O)C(=O)NCC(=O)N[C@@H](Cc1ccc(O)cc1)C(N)=O` [compound 376] (H-GCRFGTCTVQRLAHFLYQFTDKDKDNVAPRTKIGSNGY-NH2; disulfide 2-7; N-terminus assumed), the values for the EC50 at hAMY3 receptor and on hAM1 receptor were 0.022 nM and 12 nM, respectively.
`CC[C@H](C)[C@H](NC(=O)[C@H](CCC(N)=O)NC(=O)[C@H](CCC(=O)O)NC(=O)[C@H](C)NC(=O)[C@H](CC(C)C)NC(=O)[C@H](CCCNC(=N)N)NC(=O)[C@H](CCC(N)=O)NC(=O)[C@@H](NC(=O)[C@@H](NC(=O)[C@@H]1CSSC[C@H](NC(=O)[C@H](CCCCN)NC(=O)CC[C@H](NC(=O)CCCCCCCCCCCCCCCCCCC(=O)O)C(=O)O)C(=O)N[C@@H](CC(N)=O)C(=O)N[C@@H]([C@@H](C)O)C(=O)N[C@@H](C)C(=O)N[C@@H]([C@@H](C)O)C(=O)N1)[C@@H](C)O)C(C)C)C(=O)N[C@@H](Cc1ccc(O)cc1)C(=O)N[C@@H](CCC(N)=O)C(=O)N[C@@H](Cc1ccccc1)C(=O)N[C@H](C(=O)N[C@@H](CC(=O)O)C(=O)N[C@@H](CCCCN)C(=O)N[C@@H](CC(=O)O)C(=O)N[C@@H](CCCCN)C(=O)N[C@@H](CC(=O)O)C(=O)N[C@@H](CC(N)=O)C(=O)N[C@H](C(=O)N[C@@H](C)C(=O)N1CCC[C@H]1C(=O)N1CCC[C@H]1C(=O)N[C@H](C(=O)N[C@@H](CCC(N)=O)C(=O)N[C@H](C(=O)NCC(=O)N[C@@H](CO)C(=O)N[C@@H](CC(N)=O)C(=O)NCC(=O)N1C[C@H](O)C[C@H]1C(N)=O)C(C)C)[C@@H](C)O)C(C)C)[C@@H](C)O` [compound 73] ({C20 diacid-γGlu}-KCNTATCTVQRLAEQIYQFTDKDKDNVAPPTQVGSNG[Hyp]-NH2; disulfide 2-7): the figures for the half-maximal effective concentration (EC50) at hAMY3 receptor and on hAM1 receptor were 0.013 nM and above 5000 nM, respectively.
Take `CC[C@H](C)[C@H](NC(=O)[C@H](CCC(N)=O)NC(=O)[C@H](Cc1c[nH]cn1)NC(=O)[C@H](C)NC(=O)[C@H](CC(C)C)NC(=O)[C@H](CCCNC(=N)N)NC(=O)[C@H](CCC(N)=O)NC(=O)[C@@H](NC(=O)[C@@H](NC(=O)[C@@H]1CSSC[C@H](NC(=O)[C@H](CCCCN)NC(=O)CC[C@H](NC(=O)CCCCCCCCCCCCCCCCCCC(=O)O)C(=O)O)C(=O)N[C@@H](CC(N)=O)C(=O)N[C@@H]([C@@H](C)O)C(=O)N[C@@H](C)C(=O)N[C@@H]([C@@H](C)O)C(=O)N1)[C@@H](C)O)C(C)C)C(=O)N[C@@H](C)C(=O)N[C@@H](CCC(N)=O)C(=O)N[C@@H](Cc1ccccc1)C(=O)N[C@@H](Cc1ccc(O)cc1)C(=O)N[C@@H](CC(=O)O)C(=O)N[C@@H](CCCCN)C(=O)N[C@@H](CC(=O)O)C(=O)N[C@@H](CCCCN)C(=O)N[C@@H](CC(=O)O)C(=O)N[C@@H](CC(N)=O)C(=O)N[C@H](C(=O)N[C@@H](C)C(=O)N1CCC[C@H]1C(=O)N1CCC[C@H]1C(=O)N[C@H](C(=O)N[C@@H](CC(N)=O)C(=O)N[C@H](C(=O)NCC(=O)N[C@@H](CO)C(=O)N[C@@H](CC(N)=O)C(=O)NCC(=O)N1C[C@H](O)C[C@H]1C(N)=O)C(C)C)[C@@H](C)O)C(C)C` [compound 94] ({C20 diacid-γGlu}-KCNTATCTVQRLAHQIAQFYDKDKDNVAPPTNVGSNG[Hyp]-NH2; disulfide 2-7): the half-maximal effective concentration (EC50) is 0.016 nM on hAMY3 receptor and above 5000 nM at hAM1 receptor.

Values taken from patent US12139520B2 (priority 2020, dated 2024).
